Laboratory results taken from patent publication US20050234113A1, “Antioxidant and radical scavenging activity of synthetic analogs of desferrithiocin” (University of Florida Research Foundation, Inc., priority 2002, published 2005).
“Also recorded” adds a separate entry of the source.

Experiments:
[1] = Prevention of iron-mediated oxidation of ascorbate (ascorbate-mediated reduction of Fe(III)); details: ascorbate 100 μM, FeCl3 30 μM, pH 7.4, ligand/Fe ratios 0-3, 40 min
[2] = test system: acetic acid-induced colitis; assay: Acetic acid-induced colitis in rats, densitometric image analysis of colonic damage; type: in vivo; details: for Damage (%): 650 μmol kg^−1 intracolonically 30 min before 4% acetic acid, mean ± standard deviation
Experimental: The ligands were administered to the rats intracolonically as a suspension or solution in distilled water (2 mL) at a dose of 650 μmol kg^−1. The drug solutions were made fresh for each experiment. ROWASA®, the pharmaceutical preparation which contains 5-ASA (2 mL, 66.7 mg mL^−1) was given at a dose of 2318 μmol kg^−1. Control rats received distilled water (2 mL), administered intracolonically.
Animal care and experimental procedures were approved by the Institutional Animal Care and Use Committee. Colitis was induced by a modification of published methods. Briefly, the rats were anesthetized with sodium pentobarbital, 55 mg kg^−1 intraperitoneally. The abdomen was shaved and prepared for surgery. A midline incision was made, and the cecum and proximal colon were exteriorized. A reversible suture was placed at the junction of the cecum and proximal colon. The colon was rinsed with saline (10 mL), and the fluid and intestinal contents were gently expressed out the rectum. A gum-based rectal plug was inserted. The compound of interest, or distilled water in the control animals (2 mL), was injected intracolonically just distal to the ligature. The cecum and proximal colon were returned to the abdominal cavity; the compound was allowed to remain in the gut for 30 min. Then, the cecum and proximal colon were reexteriorized. The rectal plug was removed, and the drug was gently expressed out of the colon. Acetic acid (4%, 2 mL) was injected into the proximal colon over a 15-20-second time period. The acid was allowed to remain in the gut until one minute had passed (i.e., 40-45 seconds after the end of the acid administration). The no acid control rats received distilled water (2 mL), which was administered in the same manner as was the acetic acid. Air (10 mL) was then injected into the proximal colon to expel the acid or water. The cecal/proximal colon ligature was removed, the gut was returned to the abdominal cavity, and the incisions were closed. The animals were allowed to recover overnight and were sacrificed 24 hr later. The entire length of the colon was removed and assessed for damage both densitometrically and biochemically.
Gross damage was quantitated using Photoshop-based image analysis (version 5.0, Adobe Systems, Mountain View, Calif., USA) on an Apple iMac computer. The Magic Wand tool in the Select menu of Photoshop was used to place the cursor on an area of obvious damage. The tolerance level of the Magic Wand tool was set at 30. The damaged areas were automatically selected by using the Similar command in the Select menu. Then, the Eyedropper tool was used to determine the range of the damage in the highlighted areas. Individual colon images were copied to a blank Photoshop page. The Magic Wand tool, with a tolerance set to 100, was used to select all of the pixels in the colon sample. Then, the Histogram tool, which generates a graph in which each vertical line represents the number of pixels associated with a brightness level, was selected in the Image menu. The Red channel was then selected; the darker (damaged areas) appear on the left side of the histogram and the lighter (normal) areas are on the right side. The cursor was then placed on the histogram, the color range determined in an earlier step was selected, and the number of pixels encompassing that range and the percent damage were quantified automatically.
Two means were employed to assess the damage to the colon in the presence and absence of ligand, computer-based image analysis and colonic MPO measurement. The densitometric method removes much of the subjectivity involved in the simple scoring approaches. A digital image of the prepared colonic tissue is taken, and a clearly damaged segment is highlighted on the screen. Once the computer identifies all other segments of the intestine with the same or greater damage, a pixel number is generated; this number makes it possible to calculate the percentage of damaged intestine.

| Compound | effect on ascorbate-mediated reduction of Fe(III) (in words) [1] | Damage (%) [2] [%] | protection against acetic acid-induced colonic damage (in words) ([2]; intracolonic, image analysis and MPO assay) |
| --- | --- | --- | --- |
| O=C(O)[C@H]1CSC(c2ccc(O)cc2O)=N1 [4′-(HO)-DADMDFT, 4′-hydroxydesazadesmethyldesferrithiocin] | significant protection | 57 ± 15 | ineffective |
| CC(=O)N(O)CCCCCNC(=O)CCC(=O)N(O)CCCCCNC(=O)CCC(=O)N(O)CCCCCN [DFO, Desferrioxamine B, reference compound] | inhibited; also recorded: significant inhibition | 39 ± 15 |  |
